# Results published in ChEMBL document CHEMBL1201862, “PubChem BioAssay data set” (2004).
# Calls of active or inactive are those of the source.
# Legend:
# [1] = inhibitors of intracellular T. cruzi replication, confirmation, NIH3T3 host cells, beta-gal luminescence (AID 2044); assay type: functional, cell-based;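 also: intracellular parasites grown in NIH/3T3 mouse fibroblasts as host cells; luminescent beta-galactosidase reporter signal from transgenic T. cruzi replicating inside host cells; inhibitors lower the luminescence signal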
# [2] = cytotoxicity toward NIH3T3 fibroblasts, dose response, counter-screen, cell-based, ATP luminescence, mouse fibroblasts (AID 2010); assay type: functional;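 also: cells exposed to compound for about 90 hours before reading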
# cells [3] = assay: cells
# [4] = cytotoxicity in HPDE-C7 cells, cell-based, fluorescence, HTS (AID 430); assay type: functional; conditions: Homo sapiens
# [5] = cytotoxicity in KRAS-transformed pancreatic duct cells, primary screen, cell-based, fluorescence, HTS (AID 431); assay type: functional; conditions: Homo sapiens;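 also: cell line used: HPDE-C7K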
# [6] = Counterscreen for IDE inhibitors: Luminescence-based cell-based high throughput dose response assay to identify compounds that are cytotoxic to HEK cells. [Related pubchem assays: 434962 (Primary screen (IDE inhibitors in singlicate)), 449730 (Counterscreen (Cytotoxicity in triplicate)), 435028 (Confirmation (IDE inhibitors in triplicate)) …; assay type: functional; conditions: HEK293
# [7] = growth suppression of beta-catenin-knockout colon cells, dose response, cell-based, HCT116, human colon tumor (AID 1045); assay type: functional;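 also: HCT116 colon tumor cells with beta catenin knocked out; cells exposed to compound for 60 hours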
# Insulin-degrading enzyme = molecular target: T1, Insulin-degrading enzyme (Homo sapiens, UniProt P14735); assay: Dose Response: Fluorescence polarization-based cell-based high throughput dose response assay for inhibitors of insulin-degrading enzyme (IDE). [Related pubchem assays: 434962 (Primary screen (IDE inhibitors in singlicate)), 449730 (Counterscreen (Cytotoxicity in triplicate)), 435028 (Confirmation (IDE inhibitors in triplicate)), 434984 (Summary …; assay type: functional
# T1 sequence (P14735 whole entry): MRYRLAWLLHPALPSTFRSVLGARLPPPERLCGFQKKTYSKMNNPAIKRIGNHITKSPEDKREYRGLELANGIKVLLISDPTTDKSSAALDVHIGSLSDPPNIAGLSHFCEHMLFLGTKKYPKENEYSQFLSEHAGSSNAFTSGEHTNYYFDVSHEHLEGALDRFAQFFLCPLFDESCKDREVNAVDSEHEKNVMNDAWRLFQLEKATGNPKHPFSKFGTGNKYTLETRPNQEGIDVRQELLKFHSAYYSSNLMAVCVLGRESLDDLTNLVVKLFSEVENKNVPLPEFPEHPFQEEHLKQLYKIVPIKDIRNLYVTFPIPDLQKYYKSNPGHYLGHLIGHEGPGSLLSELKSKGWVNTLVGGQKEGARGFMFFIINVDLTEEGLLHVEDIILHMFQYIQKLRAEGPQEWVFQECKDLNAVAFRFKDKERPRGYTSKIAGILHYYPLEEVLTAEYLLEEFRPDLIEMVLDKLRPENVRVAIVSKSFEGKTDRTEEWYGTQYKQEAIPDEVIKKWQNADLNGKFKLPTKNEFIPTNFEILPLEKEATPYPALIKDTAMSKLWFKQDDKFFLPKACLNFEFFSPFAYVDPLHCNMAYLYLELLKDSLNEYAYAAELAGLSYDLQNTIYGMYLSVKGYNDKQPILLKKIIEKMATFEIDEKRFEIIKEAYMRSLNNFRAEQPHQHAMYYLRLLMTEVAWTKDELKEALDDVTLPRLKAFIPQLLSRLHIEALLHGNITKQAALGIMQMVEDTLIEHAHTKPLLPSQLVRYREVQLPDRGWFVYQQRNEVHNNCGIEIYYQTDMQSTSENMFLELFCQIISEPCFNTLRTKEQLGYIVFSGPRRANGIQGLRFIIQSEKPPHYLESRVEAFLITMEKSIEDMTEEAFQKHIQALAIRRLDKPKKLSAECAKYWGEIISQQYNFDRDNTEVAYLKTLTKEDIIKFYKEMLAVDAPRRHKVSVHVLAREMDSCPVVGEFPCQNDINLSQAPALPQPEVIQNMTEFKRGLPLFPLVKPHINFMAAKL
# [8] = growth suppression of PTEN-null colon cells, dose response, cell-based, HCT116 PTEN knockout (AID 1047); assay type: functional;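 also: HCT116 colon tumor cells with PTEN knocked out; cells exposed to compound for 60 hours before readout; potency for loss of cell viability measured by luminescence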
# Cytochrome P450 2D6 = Cytochrome P450 2D6 (Homo sapiens, UniProt P10635); assay: qHTS Assay for Inhibitors and Substrates of Cytochrome P450 2D6. [Related pubchem assays: 410 ]; assay type: ADME; conditions: read-out: Potency
# [9] = molecular target: T2, Neuropeptides B/W receptor type 1 (Homo sapiens, UniProt P48145); assay: Fluorescence-based dose response cell-based high throughput screening assay to identify antagonists of the G-protein coupled receptor 7 (GPR7). [Related pubchem assays: 1952 (Screening assay (GPR7 antagonists).), 1880 (Summary AID.)]; assay type: functional
# T2 sequence (P48145 whole entry): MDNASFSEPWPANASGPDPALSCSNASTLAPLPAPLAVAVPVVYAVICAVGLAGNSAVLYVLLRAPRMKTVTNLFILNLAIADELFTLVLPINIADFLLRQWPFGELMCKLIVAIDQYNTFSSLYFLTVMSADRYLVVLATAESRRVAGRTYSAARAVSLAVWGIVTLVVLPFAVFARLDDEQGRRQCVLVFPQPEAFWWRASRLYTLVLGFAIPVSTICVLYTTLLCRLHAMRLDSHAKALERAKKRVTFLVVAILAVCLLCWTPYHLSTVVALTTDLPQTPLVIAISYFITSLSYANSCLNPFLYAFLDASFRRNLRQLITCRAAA
# [10] = molecular target: Melanin-concentrating hormone receptor 1 (Homo sapiens, UniProt Q99705); assay: Fluorescence-based counterscreen for antagonists of the G-protein coupled receptor 7 (GPR7): cell-based high throughput dose response assay to identify antagonists of the melanin-concentrating hormone receptor 1 (MCHR1).; assay type: functional
# Major prion protein = Major prion protein (Homo sapiens, UniProt P04156); assay type: functional, cell-based
# NS3 = NS3 (Hepatitis C virus, UniProt A3EZJ3); assay: PubChem AID 2173; design: species or system Hepacivirus hominis
# cells [11] = assay: cells; remark: listed apart in the source
# [12] = molecular target: Peroxisome proliferator-activated receptor gamma/Nuclear receptor coactivator 3 (Homo sapiens, UniProt P37231); assay type: functional;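 also: agonist potency for raising coactivator recruitment to the receptor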
# [13] = molecular target: Peroxisome proliferator-activated receptor gamma/Nuclear receptor coactivator 1 (Homo sapiens, UniProt P37231); assay type: functional;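 also: agonist potency as compounds enhance coactivator SRC-1 recruitment to PPARgamma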
# [14] = molecular target: Peroxisome proliferator-activated receptor gamma/Nuclear receptor coactivator 2 (Homo sapiens, UniProt P37231); assay type: functional;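 also: agonist potency for raising coactivator recruitment to the receptor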
# Estrogen receptor = molecular target: T3, Estrogen receptor (Homo sapiens, UniProt P03372); assay: potentiators of ERα–SRC-1 coactivator binding, dose response, biochemical, TR-FRET, ERα LBD (AID 737)
# T3 sequence (P03372 whole entry): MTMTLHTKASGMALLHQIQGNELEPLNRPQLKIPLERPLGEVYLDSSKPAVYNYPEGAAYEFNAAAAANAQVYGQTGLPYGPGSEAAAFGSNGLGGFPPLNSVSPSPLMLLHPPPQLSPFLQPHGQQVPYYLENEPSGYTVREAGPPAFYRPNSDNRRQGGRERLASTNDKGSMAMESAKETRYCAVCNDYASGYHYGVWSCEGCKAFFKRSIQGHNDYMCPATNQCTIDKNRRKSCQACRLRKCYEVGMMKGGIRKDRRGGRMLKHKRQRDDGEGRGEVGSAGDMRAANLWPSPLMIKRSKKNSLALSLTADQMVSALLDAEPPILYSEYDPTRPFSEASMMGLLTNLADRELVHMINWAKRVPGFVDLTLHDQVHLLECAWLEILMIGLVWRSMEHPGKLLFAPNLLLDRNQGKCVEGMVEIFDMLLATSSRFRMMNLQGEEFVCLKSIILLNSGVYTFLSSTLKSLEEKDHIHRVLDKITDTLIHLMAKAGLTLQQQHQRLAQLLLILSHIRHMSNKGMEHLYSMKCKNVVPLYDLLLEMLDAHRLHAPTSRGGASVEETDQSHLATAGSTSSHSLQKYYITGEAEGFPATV
structure (smiles),measurement,setting,value
CCCCN(CC)CCNC(=O)c1nn(-c2ccc(OC)cc2)c(=O)c2c1c1ccccc1n2C,EC50,[1],< 100 nM (active)
same,EC50,[2],> 60 µM (not active)
same,EC50,cells [3],207 nM (active)
Cc1ccc(C(=O)OCC(=O)Nc2sc3c(c2C#N)CCCCC3)cc1NC(=O)c1ccco1,EC50,[4],> 20 µM (not active)
same,EC50,[5],> 20 µM (not active)
O=C1NC(=S)N(C(=O)c2ccc(F)cc2)/C1=C/c1ccccc1,IC50,[6],22.4 µM (not active)
same,EC50,[7],54.1 µM (active)
same,IC50,Insulin-degrading enzyme,22.2 µM (not active)
same,EC50,[8],40.8 µM (active)
O[C@@H]1CC[C@H]2Cc3ccccc3N=C21,AC50,Cytochrome P450 2D6,20 µM (inconclusive)
N=c1c(C(=O)NC2CCCCC2)cc2c(=O)n3ccccc3nc2n1CC1CCCO1 (centres undefined),IC50,[9],> 43.8 µM (not active)
same,IC50,[10],> 43.8 µM (not active)
CCCOc1ccc(C(=O)C2=C(O)C(=O)N(c3ccccn3)C2c2ccccc2F)cc1C (centres undefined),IC50,Major prion protein,2.96 µM (active)
same,IC50,NS3,5.77 µM (active)
same,IC50,cells [11],> 138 µM (inactive)
COC(=O)c1ccc(COC(=O)c2ccc(S(=O)(=O)N3CCC(C)CC3)cc2)o1,EC50,[12],> 79.4 µM (not active)
same,EC50,[13],> 79.4 µM (not active)
same,EC50,[14],> 79.4 µM (not active)
same,EC50,Estrogen receptor,12.6 µM (not active)
